Source: article PMC8491194, “A cyclic peptide retards the proliferation of DU145 prostate cancer cells in vitro and in vivo through inhibition of FGFR2” (MedComm, 2020)
Where a SMILES comes first, the peptide text is derived from it. Bridges are numbered along the chain shown (N, C = ends). Where no end group is shown, it is not given here. [ ]: non-standard residue; d: D form.

What was measured:
[1] = system: phosphorylated FGFR2, AKT, and ERK1/2; experiment: Western blot of phosphorylated FGFR2, AKT and ERK1/2 in xenograft tumors; assay type: in vivo, BALB/C‐nu/nu mice; conditions: tumor tissue of xenograft mice
Description: DU145 cells with a density above 90% were harvested in to a microtube. The cell concentration was adjusted to 1 × 10^7 cells/mL, and two million cells were injected under the right arm of each individual. […] Animal models were randomly selected and assigned to each experimental group, and compounds were administered by intratumoral injections. The dosing regimen was one injection a day for 7 days. The length and width of the tumor were measured using a Vernier caliper once a day, and the animal's weight was recorded once a day from the beginning of the experiment. On Day 14, blood samples of each animal were collected, the tumor tissue was separated and weighed, and internal organs were collected. The tumor volume was calculated according to the formula V = ab ^2/2 (a refers to the length of the tumor, and b refers to the width).
Cell lysates were subjected to SDS‐PAGE for Western blotting. Briefly, cells were lysed with RIPA buffer (Thermo, Waltham, MA), followed by heat denaturation in 1X Laemmli SDS buffer (Sigma, St Louis, MO). For SDS‐PAGE 100 μg proteins were loaded to each lane. After electrophoresis, the proteins were transferred onto PVDF membranes, followed by blocking in 5% nonfat milk. […] The bands were quantified using Image Lab Software 6.0 (Bio‐Rad, Hercules, CA).

[2] = Body weight of tumor-bearing mice; assay type: in vivo, BALB/C‐nu/nu mice; conditions: various dosing regimens; data not shown
Description: (§1) DU145 cells with a density above 90% were harvested in to a microtube. The cell concentration was adjusted to 1 × 10^7 cells/mL, and two million cells were injected under the right arm of each individual. After injection, the tumors grew to a size of approximately 200 mm^3 in the following days. […] Animal models were randomly selected and assigned to each experimental group, and compounds were administered by intratumoral injections. The dosing regimen was one injection a day for 7 days. The length and width of the tumor were measured using a Vernier caliper once a day, and the animal's weight was recorded once a day from the beginning of the experiment. On Day 14, blood samples of each animal were collected, the tumor tissue was separated and weighed, and internal organs were collected. The tumor volume was calculated according to the formula V = ab ^2/2 (a refers to the length of the tumor, and b refers to the width).

[3] = system: DU145 xenograft; experiment: DU145 xenograft in nude mice, tumor growth; assay type: in vivo, BALB/C‐nu/nu mice; conditions: intratumoral injection once a day for 7 days, evaluated to Day 14, P5 10-25 mg/kg, DcP5 10, 25, 50 mg/kg, P5-3 50 mg/kg
Description: The specific pathogen‐free (SPF) level experimental male nude mice were purchased from the Animal Center of Guangdong Province (China), and the strain was BALB/C‐nu/nu. The animal experiments were conducted by the Animal Experimental Center of Jinan University (China) according to the National Institutes of Health guide for the care and use of Laboratory animals. The treatment and experimental procedure met the requirements of animal ethics.
as §1

[4] = system: DU145 cells; experiment: CCK-8 cell proliferation, DU145 cells; assay type: cell-based, human; conditions: DU145, concentrations of 6.25 and 12.5 μM
Description: (§2) The cell lines, including DU145 (human prostate cancer cells, American Type Culture Collection/ATCC, Manassas, VA), LNCaP (human prostate cancer cells, ATCC, Manassas, VA), KYSE30 (human esophageal squamous cell carcinoma cells, ATCC, Manassas, VA), KYSE510 (human esophageal squamous cell carcinoma cells, ATCC, US), L02 (human normal liver cells, ATCC, Manassas, VA), and MCF‐7 (human breast cancer cells, ATCC, Manassas, VA) were cultured in DMEM medium (Thermo Gibco, Waltham, MA) with 10% FBS (Biological Industries, Israel). The SGC7901 (human gastric cancer cells, ATCC, Manassas, VA) cells were maintained in RPMI‐1640 medium (Thermo Gibco, Waltham, MA) with 10% FBS. All these cell lines were cultured at 37°C in a 5% CO2 cell incubator (Bio‐Rad, Hercules, CA). Subculture of these cell lines was employed with 0.25% trypsin (Thermo Gibco, Waltham, MA).
The cells were seeded at a density of 30 000 cells/mL based on cell counting performed with a cell counting plate. […]
(§3) Cell proliferation was evaluated using the Enhanced CCK‐8 cell proliferation and toxicity test kit (Meilunbio, China) according to the product specifications. Finally, the OD450 nm and OD630 nm were measured with an iMark dual wavelength microplate reader (Bio‐Rad, Hercules, CA), and the ratio of OD450 nm/OD630 nm was calculated.

[5] = system: FGFR2 knockdown DU145 cells; experiment: Growth inhibition in FGFR2-knockdown (shFGFR2) DU145 cells; assay type: cell-based, human; conditions: DU145, shFGFR2 knockdown vs wild type
Description: The cells were seeded at a density of 30 000 cells/mL based on cell counting performed with a cell counting plate. Different concentrations of the P5 peptide were added to the cultural medium, followed by a 24‐hour incubation at 37°C in a 5% CO2 cell incubator (Bio‐Rad, Hercules, CA). Five replicates were set up for each experimental group.
as §3
The shFGFR2 plasmid was purchased from Sigma (St Louis, MO) (TRCN0000218493). One microliter Lip3000 (Lipofectamine 3000, Invitrogen, Carlsbad, CA) was mixed with 100 ng plasmid in nonserum DMEM medium before being added into the cultural DU145 cells. The cells were incubated with the Lip3000/plasmid solution for 6 hours, followed by DMEM with 10% FBS incubation. The transfected cells were then ready for growth‐inhibition experiment and RNA extraction for qPCR.

[6] = Peptide concentration in peripheral blood after administration; assay type: in vivo, BALB/C‐nu/nu mice; conditions: 25 mg/kg, serum; for time before blood concentration dropped below half C max: mice, biotin quantitation kit, sampled 0.5-24 hours postadministration
Description: as §1, with “On Day 14, blood samples of each animal were collected, the tumor tissue was separated and weighed, and internal organs were collected.” left out
Serum in the blood was separated and used to perform biotin quantitation with a Biotin Quantitation assay kit (MyBioSource, San Diego, CA) to calculate the concentration of the biotin‐peptide complex in the blood sample. Serum samples from the blank group were used as background controls, and serum of the 25 mg/kg‐dose P5 group and 25 mg/kg‐dose DcP5 group was examined in this step.

[7] = system: heart, liver, spleen, lung, and kidney; experiment: H&E staining of major organs of tumor-bearing mice; assay type: in vivo, BALB/C‐nu/nu mice; conditions: tumor-bearing mice at functional doses, paraffin sections
Description: as §1
Briefly, the connective tissue around the parenchyma organ was removed and washed three times in PBS, and the tissues were fixed with 10% formalin solution for 24 hours, followed by gradient ethanol dehydration. The tissues were then subjected to paraffin embedding. Sections of 4 μm thickness were prepared for H&E staining. H&E staining was performed according to the standard protocol of the H&E staining kit (Solarbio, China).

[8] = system: FGFR2 on DU145 cells; experiment: Immunofluorescence assay (IFA) of biotin-labeled peptide binding to DU145 cells; assay type: cell-based, human
Description: The binding affinity was analyzed under fluorescent microscope. GFP‐labeled DU145 cells were cultured to a density of 50%, followed by 4% paraformaldehyde fixation. After treated with 0.2% Triton X‐100, the cells were then blocked with 5% BSA. The incubation was performed by different treatments and SA‐PE‐TRITC was used as a fluorescent indicator; briefly, the FGFR2 mAb group (Abcam [Cambridge, MA] followed by PE‐TRITC‐labeled goat antimouse IgG for color development), and the blank group (equal amounts of PBS followed by SA‐PE‐TRITC as a fluorescent indicator were added). After adding the biotin‐labeled P5 peptide, biotin‐labeled P5‐3 peptide or anti‐FGFR2 mAb, the cells were incubated at 4°C overnight. After washing five times with PBST, the TRITC‐labeled streptavidin regent or TRITC‐labeled secondary antibody was introduced for another incubation at 25°C for 30 minutes in dark. Finally, the DAPI staining reagent was employed to stain the nucleus for 10 minutes in dark, followed by washing five times with PBS. After the addition of ProLong Antifade mounting medium (Thermo, Waltham, MA), a confocal microscope (OLS4100, Japan) was used for observation.

[9] = system: DU145 cells; experiment: Colony formation of DU145 cells; assay type: cell-based, human; conditions: 12.5 μM
Description: Cell colony formation was also employed to evaluate the effect of P5 and DcP5. The DU145 cells were seeded in six‐well plates (500 cells/well). The cultural supernatant was removed at 48 hours posttreatment, followed by washing with PBS three times. The cells were then fixed with 4% paraformaldehyde and air dried. Crystal violet staining was performed using solution (Sangon, China) as per the instructions. Then, photographs were taken, and spot amounts were calculated with an Invitrogen Countess II FL (Thermo, Waltham, MA) cell counter.
(§4) In our study, peptide cyclization was achieved by adding two cysteine residues to each end of the peptides. Cysteine is a chiral molecule. The natural cysteine is L‐cysteine, and a report has shown that introduction of unnatural D‐cysteine can theoretically improve the stability of the cyclic peptide in vivo.[41], [42], [43] Therefore, we designed and synthesized two cyclic peptides, DcP5 and LcP5, with two L‐cysteines or D‐cysteines at each end, respectively. The amino acid polymers of DcP5 and LcP5 were synthesized via the same organic chemistry as the P5 peptide. The cysteine‐ending peptides were spontaneously cyclized at 37°C in PBS (pH = 9.0) for 12 hours. […] Then, the binding affinity of these two cyclic peptides to FGFR2 was measured by ITC as described in Section 2.1. […]

[10] = system: L02 normal liver cells; experiment: Toxicity toward L02 normal liver cells; assay type: cell-based, human; conditions: in vitro
Description: as §2, §3

[11] = target: FGFR2 (Homo sapiens, UniProt P21802); experiment: Isothermal titration calorimetry (ITC) binding to FGFR2 protein; conditions: in Figure 4A, read-out: KD, P5-FGFR2
Description: A set of peptide candidates was designed with manual inspection, synthesized with a chemical dehydration reaction, and verified with MS. To screen the candidates, an in vitro binding assay using isothermal titration calorimetry (ITC) was performed against the FGFR2 protein using AutoiTC200 (MicroCal, MA). After the positive candidate was confirmed by ITC, three analog peptides with different mutant amino acids were designed to verify the active site previously determined. The binding affinity of each mutant analog to FGFR2 was measured using ITC and compared with the positive candidate.
as §4

Chain of FGFR2 (P21802 22-821): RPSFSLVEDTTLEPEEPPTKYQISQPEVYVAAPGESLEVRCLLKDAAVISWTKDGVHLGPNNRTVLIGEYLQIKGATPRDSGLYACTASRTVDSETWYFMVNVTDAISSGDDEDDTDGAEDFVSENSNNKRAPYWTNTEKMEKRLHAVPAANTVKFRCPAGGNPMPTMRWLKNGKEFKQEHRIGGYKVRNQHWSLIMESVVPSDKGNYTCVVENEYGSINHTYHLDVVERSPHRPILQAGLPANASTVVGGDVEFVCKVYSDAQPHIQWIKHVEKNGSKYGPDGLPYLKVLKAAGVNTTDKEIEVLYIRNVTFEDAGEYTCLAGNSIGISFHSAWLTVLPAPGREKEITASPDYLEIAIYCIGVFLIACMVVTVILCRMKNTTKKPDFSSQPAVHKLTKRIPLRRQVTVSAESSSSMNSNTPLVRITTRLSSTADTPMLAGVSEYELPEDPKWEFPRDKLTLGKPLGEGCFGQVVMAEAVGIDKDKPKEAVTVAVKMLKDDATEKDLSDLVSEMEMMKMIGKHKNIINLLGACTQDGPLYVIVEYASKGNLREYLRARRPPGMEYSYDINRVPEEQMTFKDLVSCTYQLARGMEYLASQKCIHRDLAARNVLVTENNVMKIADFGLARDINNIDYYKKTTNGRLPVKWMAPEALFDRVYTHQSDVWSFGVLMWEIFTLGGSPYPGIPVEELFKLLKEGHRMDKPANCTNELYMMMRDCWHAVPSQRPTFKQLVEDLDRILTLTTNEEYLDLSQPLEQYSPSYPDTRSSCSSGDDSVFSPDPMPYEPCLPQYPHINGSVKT

## CC(C)C[C@@H]1NC(=O)[C@H](N)CSSC[C@H](C(=O)O)NC(=O)[C@H](CCCNC(=N)N)NC(=O)[C@H](CCC(=O)O)NC(=O)[C@H](CCC(=O)O)NC(=O)[C@H](C)NC(=O)[C@H](CCC(N)=O)NC(=O)[C@H](CC(C)C)NC(=O)[C@H](CCC(N)=O)NC1=O [DcP5] (H-[dC]LQLQAEER[dC]-OH; disulfide 1-10; N-terminus and C-terminus assumed)
[1]
  phosphorylation of FGFR2, AKT, and ERK1/2: reduced
[2]
  body weight versus other groups incl. blank: little difference in body weight
[3]
  tumor growth in xenograft: significantly decreased the tumor size in dose‐dependent manner
[4]
  growth-inhibition rate relative to P5: stronger inhibition than P5
[5]
  growth inhibitory effect in FGFR2 knockdown cells compared to wild type cells: significantly decreased
[6]
  time before blood concentration dropped below half C max: 7 h
[6]; 0.5 hour after administration, biotin quantitation kit (biotin-peptide)
  concentration in peripheral blood relative to P5: twice
[7]
  toxicity toward heart, liver, spleen, lung, and kidney (H&E morphology): remained normal
[8]; IFA
  fluorescent intensity of treated cells relative to P5: significantly stronger
[8]; biotin-labeled peptide
  binding to FGFR2 on cells (IFA): bind to FGFR2
[9]; 500 cells/well, crystal violet
  colony number versus control group: significantly less than the control group
[9]; P < .05
  less colonies than cells exposed to P5: 20%

## LQLQAEER [P5]
[10]
  toxicity toward normal cells: negligible toxicity
[2]
  body weight versus other groups incl. blank: little difference in body weight
[11]
  Kd: 490 nM
[6]
  time before blood concentration dropped below half C max: 5 h
[7]
  toxicity toward heart, liver, spleen, lung, and kidney (H&E morphology): negligible toxicity
